Species: Rattus norvegicus
Assay: DrugMatrix - Regimen: Daily Repeat
Assay type: toxicity, organism-based, Sprague-Dawley
Design: regimen Daily Repeat, gender Male, age 6-8 weeks
Details: in vivo, po, route oral GAVAGE, vehicle 100 % WATER; for ABSOLUTE BASOPHIL / ABSOLUTE EOSINOPHIL / ABSOLUTE LYMPHOCYTE / ABSOLUTE MONOCYTE / ABSOLUTE SEGMENTED NEUTROPHIL / BASOPHIL / EOSINOPHIL / ERYTHROCYTE COUNT / HEMATOCRIT / HEMOGLOBIN / LEUKOCYTE COUNT / LYMPHOCYTE / MEAN CORPUSCULAR HEMOGLOBIN / MEAN CORPUSCULAR HEMOGLOBIN CONCENTRATION / MEAN CORPUSCULAR VOLUME / MONOCYTE / NEUTROPHIL / NUCLEATED RED BLOOD CELLS / PLATELET COUNT: tissue Blood; for ALANINE AMINOTRANSFERASE / ALBUMIN / ALKALINE PHOSPHATASE / ASPARTATE AMINOTRANSFERASE / BLOOD UREA NITROGEN / CARBON DIOXIDE / CHLORIDE / CHOLESTEROL / CREATINE PHOSPHOKINASE / CREATININE / GLUCOSE / LACTATE DEHYDROGENASE / LIPASE / PHOSPHORUS / POTASSIUM / SODIUM / TOTAL BILIRUBIN / TOTAL PROTEIN / URIC ACID: tissue Plasma
[1] = 0 mg/kg, 72 h, dose level Control, time 3 day
[2] = 0 mg/kg, 120 h, dose level Control, time 5 day
[3] = 5 mg/kg, 72 h, dose level Low, time 3 day

C[N+](C)(C)CCOC(N)=O.[Cl-] [CARBACHOL]
ABSOLUTE BASOPHIL [1]: 0 CELLS/uL | ABSOLUTE EOSINOPHIL [1]: 0 CELLS/uL | ABSOLUTE LYMPHOCYTE [1]: 8482.5 CELLS/uL | ABSOLUTE MONOCYTE [1]: 63.83 CELLS/uL | ABSOLUTE SEGMENTED NEUTROPHIL [1]: 887 CELLS/uL | BASOPHIL [1]: 0% | EOSINOPHIL [1]: 0% | ERYTHROCYTE COUNT [1]: 5.49 x10E6/uL | HEMATOCRIT [1]: 34.5% | HEMOGLOBIN [1]: 13.33 G/DL | LEUKOCYTE COUNT [1]: 9.43 x10E3/uL | LYMPHOCYTE [1]: 90.17% | MEAN CORPUSCULAR HEMOGLOBIN [1]: 24.3 pg | MEAN CORPUSCULAR HEMOGLOBIN CONCENTRATION [1]: 38.63 G/DL | MEAN CORPUSCULAR VOLUME [1]: 62.88 fL | MONOCYTE [1]: 0.67% | NEUTROPHIL [1]: 9.17% | NUCLEATED RED BLOOD CELLS [1]: 0.67 /100WBC | PLATELET COUNT [1]: 1022.83 x10E3/uL | ALANINE AMINOTRANSFERASE [1]: 50.5 u/L | ALBUMIN [1]: 4.08 G/DL | ALKALINE PHOSPHATASE [1]: 368.33 u/L | ASPARTATE AMINOTRANSFERASE [1]: 87.5 u/L | BLOOD UREA NITROGEN [1]: 12.83 mg/dL | CARBON DIOXIDE [1]: 32.83 mmol/L | CHLORIDE [1]: 99.67 MEQ/L | CHOLESTEROL [1]: 79.67 mg/dL | CREATINE PHOSPHOKINASE [1]: 585 u/L | CREATININE [1]: 0.22 mg/dL | GLUCOSE [1]: 135.67 mg/dL | LACTATE DEHYDROGENASE [1]: 171 u/L | LIPASE [1]: 9.5 u/L | PHOSPHORUS [1]: 11.18 mg/dL | POTASSIUM [1]: 6.25 MEQ/L | SODIUM [1]: 144.87 MEQ/L | TOTAL BILIRUBIN [1]: 0.2 mg/dL | TOTAL PROTEIN [1]: 6.08 G/DL | URIC ACID [1]: 0.65 mg/dL | ABSOLUTE BASOPHIL [2]: 0 CELLS/uL | ABSOLUTE EOSINOPHIL [2]: 14.5 CELLS/uL | ABSOLUTE LYMPHOCYTE [2]: 7596.17 CELLS/uL | ABSOLUTE MONOCYTE [2]: 69.67 CELLS/uL | ABSOLUTE SEGMENTED NEUTROPHIL [2]: 503 CELLS/uL | BASOPHIL [2]: 0% | EOSINOPHIL [2]: 0.17% | ERYTHROCYTE COUNT [2]: 5.49 x10E6/uL | HEMATOCRIT [2]: 34.72% | HEMOGLOBIN [2]: 13.47 G/DL | LEUKOCYTE COUNT [2]: 8.18 x10E3/uL | LYMPHOCYTE [2]: 92.17% | MEAN CORPUSCULAR HEMOGLOBIN [2]: 24.57 pg | MEAN CORPUSCULAR HEMOGLOBIN CONCENTRATION [2]: 38.82 G/DL | MEAN CORPUSCULAR VOLUME [2]: 63.3 fL | MONOCYTE [2]: 1% | NEUTROPHIL [2]: 6.67% | NUCLEATED RED BLOOD CELLS [2]: 0 /100WBC | PLATELET COUNT [2]: 1141 x10E3/uL | ALANINE AMINOTRANSFERASE [2]: 48.33 u/L | ALBUMIN [2]: 4.07 G/DL | ALKALINE PHOSPHATASE [2]: 395.67 u/L | ASPARTATE AMINOTRANSFERASE [2]: 85.67 u/L | BLOOD UREA NITROGEN [2]: 15.83 mg/dL | CARBON DIOXIDE [2]: 31.33 mmol/L | CHLORIDE [2]: 100.83 MEQ/L | CHOLESTEROL [2]: 62.33 mg/dL | CREATINE PHOSPHOKINASE [2]: 248.33 u/L | CREATININE [2]: 0.2 mg/dL | GLUCOSE [2]: 135.67 mg/dL | LACTATE DEHYDROGENASE [2]: 141.33 u/L | LIPASE [2]: 9.5 u/L | PHOSPHORUS [2]: 10.73 mg/dL | POTASSIUM [2]: 6.07 MEQ/L | SODIUM [2]: 145.35 MEQ/L | TOTAL BILIRUBIN [2]: 0.22 mg/dL | TOTAL PROTEIN [2]: 6.12 G/DL | URIC ACID [2]: 0.63 mg/dL | ABSOLUTE BASOPHIL [3]: 0 CELLS/uL | ABSOLUTE EOSINOPHIL [3]: 50.33 CELLS/uL | ABSOLUTE LYMPHOCYTE [3]: 10617 CELLS/uL | ABSOLUTE MONOCYTE [3]: 63 CELLS/uL | ABSOLUTE SEGMENTED NEUTROPHIL [3]: 603 CELLS/uL | BASOPHIL [3]: 0% | EOSINOPHIL [3]: 0.33% | ERYTHROCYTE COUNT [3]: 5.09 x10E6/uL | HEMATOCRIT [3]: 32.27% | HEMOGLOBIN [3]: 12.67 G/DL | LEUKOCYTE COUNT [3]: 11.33 x10E3/uL | LYMPHOCYTE [3]: 93.67% | MEAN CORPUSCULAR HEMOGLOBIN [3]: 24.9 pg | MEAN CORPUSCULAR HEMOGLOBIN CONCENTRATION [3]: 39.3 G/DL | MEAN CORPUSCULAR VOLUME [3]: 63.33 fL | MONOCYTE [3]: 0.67% | NEUTROPHIL [3]: 5.33% | NUCLEATED RED BLOOD CELLS [3]: 0 /100WBC | PLATELET COUNT [3]: 1098.33 x10E3/uL | ALANINE AMINOTRANSFERASE [3]: 65.67 u/L | ALBUMIN [3]: 3.93 G/DL | ALKALINE PHOSPHATASE [3]: 297.33 u/L | ASPARTATE AMINOTRANSFERASE [3]: 89.67 u/L | BLOOD UREA NITROGEN [3]: 12 mg/dL | CARBON DIOXIDE [3]: 33.67 mmol/L | CHLORIDE [3]: 98.33 MEQ/L | CHOLESTEROL [3]: 74.67 mg/dL | CREATINE PHOSPHOKINASE [3]: 369.33 u/L | CREATININE [3]: 0.19 mg/dL | GLUCOSE [3]: 134 mg/dL | LACTATE DEHYDROGENASE [3]: 123 u/L | LIPASE [3]: 11 u/L | PHOSPHORUS [3]: 11.1 mg/dL | POTASSIUM [3]: 5.93 MEQ/L | SODIUM [3]: 144.17 MEQ/L | TOTAL BILIRUBIN [3]: 0.13 mg/dL | TOTAL PROTEIN [3]: 5.83 G/DL | URIC ACID [3]: 0.53 mg/dL
